Experimental data reported in ChEMBL document CHEMBL1201862, “PubChem BioAssay data set” (2004).
Calls of active or inactive are those of the source.

Experiments:
[1] = biological target: T1, Calpain-2 catalytic subunit (Sus scrofa, UniProt P43367); test: pig calpain II inhibitor potency, dose response, biochemical, fluorogenic peptide substrate (AID 1420); format: functional
T1 sequence (P43367 whole entry): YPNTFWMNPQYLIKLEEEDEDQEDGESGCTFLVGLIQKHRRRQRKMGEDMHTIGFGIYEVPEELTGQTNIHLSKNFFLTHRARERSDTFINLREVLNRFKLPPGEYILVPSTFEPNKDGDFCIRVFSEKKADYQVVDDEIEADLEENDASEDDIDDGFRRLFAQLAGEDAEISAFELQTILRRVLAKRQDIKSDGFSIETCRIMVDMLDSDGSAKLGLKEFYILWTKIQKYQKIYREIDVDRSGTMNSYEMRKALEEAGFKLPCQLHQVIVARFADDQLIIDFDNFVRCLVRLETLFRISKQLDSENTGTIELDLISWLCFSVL

Cytochrome P450 2C9 [2] = biological target: T2, Cytochrome P450 2C9 (Homo sapiens, UniProt P11712)
T2 sequence (P11712 whole entry): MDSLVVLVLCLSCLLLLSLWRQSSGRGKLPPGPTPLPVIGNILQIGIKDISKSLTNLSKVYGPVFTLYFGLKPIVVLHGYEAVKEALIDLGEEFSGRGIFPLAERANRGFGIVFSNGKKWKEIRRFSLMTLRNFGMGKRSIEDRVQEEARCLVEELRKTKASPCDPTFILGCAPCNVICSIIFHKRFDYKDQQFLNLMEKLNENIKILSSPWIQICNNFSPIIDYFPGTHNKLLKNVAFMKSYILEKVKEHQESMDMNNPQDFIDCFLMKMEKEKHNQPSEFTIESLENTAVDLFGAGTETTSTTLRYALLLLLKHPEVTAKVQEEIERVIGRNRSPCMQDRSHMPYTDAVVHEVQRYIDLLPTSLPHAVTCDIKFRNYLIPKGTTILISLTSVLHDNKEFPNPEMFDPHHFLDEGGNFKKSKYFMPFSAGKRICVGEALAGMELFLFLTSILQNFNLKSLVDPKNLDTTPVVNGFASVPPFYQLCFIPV

[3] = NIH-3T3 fibroblast cytotoxicity, dose response, cytotoxicity control, cell-based, fluorescence, Alamar Blue, secondary assay (AID 2327); format: functional;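 note: NIH-3T3 mouse fibroblasts cultured with fluconazole at 8 µg/mL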
[4] = C. albicans growth with fluconazole, confirmation, fluorescence, retest (AID 2467); format: functional, cell-based
Cytochrome P450 2D6 = Cytochrome P450 2D6 (Homo sapiens, UniProt P10635);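 note: CYP2D6 member of a cytochrome P450 panel assay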
Chain of Cytochrome P450 2D6 (P10635 whole entry): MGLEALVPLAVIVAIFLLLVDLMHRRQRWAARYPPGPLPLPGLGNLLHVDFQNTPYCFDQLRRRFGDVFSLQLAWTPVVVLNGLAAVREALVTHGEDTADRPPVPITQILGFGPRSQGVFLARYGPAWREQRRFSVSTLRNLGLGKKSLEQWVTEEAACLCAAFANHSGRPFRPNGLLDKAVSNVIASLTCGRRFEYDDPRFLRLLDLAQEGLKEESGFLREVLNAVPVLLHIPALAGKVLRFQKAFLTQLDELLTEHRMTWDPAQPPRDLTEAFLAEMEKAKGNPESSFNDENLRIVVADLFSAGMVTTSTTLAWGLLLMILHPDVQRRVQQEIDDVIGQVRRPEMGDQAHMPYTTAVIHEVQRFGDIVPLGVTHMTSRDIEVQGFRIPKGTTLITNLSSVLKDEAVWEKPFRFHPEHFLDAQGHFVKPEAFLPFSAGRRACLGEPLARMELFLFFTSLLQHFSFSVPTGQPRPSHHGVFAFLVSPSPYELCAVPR

[5] = biological target: T3, Polyadenylate-binding protein 1 (Homo sapiens, UniProt P11940); test: PABP1 MLLE–PAM2 binding inhibitor potency, dose response, biochemical, fluorescence polarization, FITC-PAM2 peptide (AID 602259); format: functional; conditions: read-out: IC50_Mean
T3 sequence (P11940 whole entry): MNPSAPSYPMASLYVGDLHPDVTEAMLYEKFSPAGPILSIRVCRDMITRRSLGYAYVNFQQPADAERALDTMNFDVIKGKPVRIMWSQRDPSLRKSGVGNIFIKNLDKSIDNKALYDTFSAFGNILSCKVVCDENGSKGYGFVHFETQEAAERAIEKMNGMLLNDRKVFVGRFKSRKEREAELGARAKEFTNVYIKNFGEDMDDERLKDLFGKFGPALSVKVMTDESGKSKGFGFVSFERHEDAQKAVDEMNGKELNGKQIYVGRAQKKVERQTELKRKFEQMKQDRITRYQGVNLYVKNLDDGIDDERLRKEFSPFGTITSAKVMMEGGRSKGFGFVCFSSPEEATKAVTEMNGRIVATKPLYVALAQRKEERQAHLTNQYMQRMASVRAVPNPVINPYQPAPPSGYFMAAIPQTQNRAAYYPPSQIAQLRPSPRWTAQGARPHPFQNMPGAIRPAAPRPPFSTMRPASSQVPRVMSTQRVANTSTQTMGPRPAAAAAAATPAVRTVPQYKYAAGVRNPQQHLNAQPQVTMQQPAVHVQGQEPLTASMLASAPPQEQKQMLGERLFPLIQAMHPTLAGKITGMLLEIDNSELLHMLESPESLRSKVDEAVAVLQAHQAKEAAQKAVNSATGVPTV

[6] = biological target: T3, Polyadenylate-binding protein 1; test: PABP1 MLLE–PAM2 interaction inhibitors, dose response, miRNA deadenylation inhibitor project, biochemical, fluorescence polarization, Cy5-PAM2 peptide, secondary (AID 602260); format: functional; conditions: read-out: IC50_Mean
Cytochrome P450 2C19 = Cytochrome P450 2C19 (Homo sapiens, UniProt P33261); test: Cytochrome panel assay with activity outcomes. Panel member name: p450-cyp2c19 Compounds with AC50 equal or less than 10 uM are considered active; format: functional
Chain of Cytochrome P450 2C19 (P33261 whole entry): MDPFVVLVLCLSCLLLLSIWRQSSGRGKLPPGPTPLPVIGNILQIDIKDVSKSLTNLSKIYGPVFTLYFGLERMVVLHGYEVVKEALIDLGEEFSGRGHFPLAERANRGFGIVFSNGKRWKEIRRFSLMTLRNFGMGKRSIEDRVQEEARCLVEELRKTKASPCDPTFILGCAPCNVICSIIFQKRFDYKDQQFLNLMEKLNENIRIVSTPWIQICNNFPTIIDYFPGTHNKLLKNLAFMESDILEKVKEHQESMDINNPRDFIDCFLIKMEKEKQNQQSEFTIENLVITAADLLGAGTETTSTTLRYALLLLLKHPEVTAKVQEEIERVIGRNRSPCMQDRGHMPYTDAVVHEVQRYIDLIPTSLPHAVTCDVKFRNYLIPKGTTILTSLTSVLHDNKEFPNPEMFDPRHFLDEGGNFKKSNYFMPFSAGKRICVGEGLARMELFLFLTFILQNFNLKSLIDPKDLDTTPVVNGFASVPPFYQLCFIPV

Cytochrome P450 1A2 = biological target: T4, Cytochrome P450 1A2 (Homo sapiens, UniProt P05177);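 note: PubChem cytochrome P450 panel assay, CYP1A2 panel member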
T4 sequence (P05177 whole entry): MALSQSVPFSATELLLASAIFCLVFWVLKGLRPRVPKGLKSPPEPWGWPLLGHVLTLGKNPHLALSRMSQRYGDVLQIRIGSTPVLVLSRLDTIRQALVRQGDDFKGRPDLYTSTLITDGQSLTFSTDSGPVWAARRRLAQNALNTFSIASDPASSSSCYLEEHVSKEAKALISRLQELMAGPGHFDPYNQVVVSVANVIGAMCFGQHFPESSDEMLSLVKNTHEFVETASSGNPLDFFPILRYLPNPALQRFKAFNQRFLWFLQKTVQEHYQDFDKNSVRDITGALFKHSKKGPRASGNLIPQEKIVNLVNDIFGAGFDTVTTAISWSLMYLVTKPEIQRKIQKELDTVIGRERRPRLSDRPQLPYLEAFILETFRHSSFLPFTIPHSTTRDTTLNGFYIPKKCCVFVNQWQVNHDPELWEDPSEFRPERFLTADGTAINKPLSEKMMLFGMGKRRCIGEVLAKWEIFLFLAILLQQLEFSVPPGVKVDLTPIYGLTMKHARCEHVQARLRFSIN

[7] = biological target: T5, Replicative DNA helicase DnaB (Mycobacterium tuberculosis, UniProt P9WMR3); test: DnaB intein splicing inhibitors, dose response, biochemical, cell-free fluorescence (AID 449749); format: functional
T5 sequence (P9WMR3 whole entry): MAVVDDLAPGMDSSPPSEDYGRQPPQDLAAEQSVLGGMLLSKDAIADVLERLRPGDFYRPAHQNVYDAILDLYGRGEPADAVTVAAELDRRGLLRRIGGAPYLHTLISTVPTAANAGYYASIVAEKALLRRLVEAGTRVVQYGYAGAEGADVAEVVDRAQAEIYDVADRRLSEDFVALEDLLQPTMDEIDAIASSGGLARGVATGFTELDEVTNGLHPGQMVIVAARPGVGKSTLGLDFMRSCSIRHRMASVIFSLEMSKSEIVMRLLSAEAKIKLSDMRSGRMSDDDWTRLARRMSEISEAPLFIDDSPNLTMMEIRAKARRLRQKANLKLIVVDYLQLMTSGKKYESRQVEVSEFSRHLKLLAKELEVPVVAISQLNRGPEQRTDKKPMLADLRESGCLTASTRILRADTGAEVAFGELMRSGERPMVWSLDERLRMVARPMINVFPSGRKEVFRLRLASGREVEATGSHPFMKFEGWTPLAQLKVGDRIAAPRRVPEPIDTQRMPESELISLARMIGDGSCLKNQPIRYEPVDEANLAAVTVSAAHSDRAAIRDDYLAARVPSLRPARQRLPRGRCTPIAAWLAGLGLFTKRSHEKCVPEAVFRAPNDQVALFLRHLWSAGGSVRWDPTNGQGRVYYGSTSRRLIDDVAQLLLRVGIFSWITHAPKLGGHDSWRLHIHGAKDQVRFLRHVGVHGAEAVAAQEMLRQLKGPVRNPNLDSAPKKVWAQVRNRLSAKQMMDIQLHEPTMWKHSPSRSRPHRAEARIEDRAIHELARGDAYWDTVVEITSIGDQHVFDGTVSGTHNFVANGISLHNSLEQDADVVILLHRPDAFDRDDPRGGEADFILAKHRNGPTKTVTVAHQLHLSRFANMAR

Protein RecA = biological target: T6, Protein RecA (Mycobacterium tuberculosis, UniProt P9WHJ3); test: Fluorescence Cell-Free Homogeneous Dose Retest to Identify Inhibitors of RecA-Intein Splicing Activity. [Related pubchem assays (depositor defined):AID2097, AID2223, AID489010, AID492950]; format: functional
T6 sequence (P9WHJ3 whole entry): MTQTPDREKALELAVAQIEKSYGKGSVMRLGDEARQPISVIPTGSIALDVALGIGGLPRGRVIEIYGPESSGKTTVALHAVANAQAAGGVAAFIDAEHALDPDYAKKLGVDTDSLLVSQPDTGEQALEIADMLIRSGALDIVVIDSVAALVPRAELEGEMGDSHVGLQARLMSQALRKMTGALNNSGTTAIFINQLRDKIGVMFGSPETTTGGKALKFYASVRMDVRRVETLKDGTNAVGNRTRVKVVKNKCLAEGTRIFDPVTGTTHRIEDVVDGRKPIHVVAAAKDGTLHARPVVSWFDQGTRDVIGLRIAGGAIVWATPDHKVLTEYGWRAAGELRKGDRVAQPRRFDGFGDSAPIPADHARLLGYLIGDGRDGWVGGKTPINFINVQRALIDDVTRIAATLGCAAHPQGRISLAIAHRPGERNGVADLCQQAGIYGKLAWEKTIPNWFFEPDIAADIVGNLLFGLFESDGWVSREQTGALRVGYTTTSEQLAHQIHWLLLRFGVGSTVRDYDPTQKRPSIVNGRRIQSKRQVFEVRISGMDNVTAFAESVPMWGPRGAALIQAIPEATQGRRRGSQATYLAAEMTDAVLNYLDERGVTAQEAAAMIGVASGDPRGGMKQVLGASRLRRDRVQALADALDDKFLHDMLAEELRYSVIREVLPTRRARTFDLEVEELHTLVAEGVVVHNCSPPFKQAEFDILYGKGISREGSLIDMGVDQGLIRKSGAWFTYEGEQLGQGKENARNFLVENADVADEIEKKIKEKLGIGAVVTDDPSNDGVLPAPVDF

Cytochrome P450 2C9 [8] = biological target: T2, Cytochrome P450 2C9; remark: listed apart in the source
Cytochrome P450 3A4 = Cytochrome P450 3A4 (Homo sapiens, UniProt P08684);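 note: CYP3A4 tested as one member of a cytochrome P450 panel screen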
Chain of Cytochrome P450 3A4 (P08684 whole entry): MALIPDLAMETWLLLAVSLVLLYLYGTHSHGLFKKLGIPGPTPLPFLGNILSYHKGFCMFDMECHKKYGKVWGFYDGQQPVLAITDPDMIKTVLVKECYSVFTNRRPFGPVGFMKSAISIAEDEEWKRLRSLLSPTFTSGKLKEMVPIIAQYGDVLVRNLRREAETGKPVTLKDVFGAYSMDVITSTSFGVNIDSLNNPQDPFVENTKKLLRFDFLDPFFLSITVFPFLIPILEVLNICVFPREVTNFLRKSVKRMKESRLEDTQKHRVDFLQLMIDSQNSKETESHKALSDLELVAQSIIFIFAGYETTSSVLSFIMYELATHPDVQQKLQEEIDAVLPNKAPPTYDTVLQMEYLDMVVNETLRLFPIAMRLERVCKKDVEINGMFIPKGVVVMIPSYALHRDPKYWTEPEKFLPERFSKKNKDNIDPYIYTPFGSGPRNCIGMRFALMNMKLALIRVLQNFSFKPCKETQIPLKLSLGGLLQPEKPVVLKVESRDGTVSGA

[9] = P. falciparum Dd2 growth inhibitors, dose response, SYBR Green, cherry-picked samples (AID 1159567); format: functional, cell-based

## N=C(NNC(=O)c1ccccc1)c1cc2ccccc2oc1=O
[1]
  IC50: 48.5 µM (not active)

## CC(C)Cn1c(N)c(C(=O)COC(=O)c2cccc(F)c2)c(=O)n(C)c1=O
[1]
  IC50: 16.2 µM (not active)

## CCOc1cc(C)ccc1OCc1nnc(SCC(=O)c2cccc([N+](=O)[O-])c2)n1CC
Cytochrome P450 2C9 [2]
  AC50: inconclusive

## Cc1c(C(=O)N2CCC(C)CC2)sc2ncnc(N3CCN(c4ccccc4)CC3)c12
[1]
  IC50: 19 µM (not active)

## O=C(Cc1ccccc1Cl)NCCCn1ccnc1
[1]
  IC50: > 50 µM (not active)

## COc1ccc(Cl)cc1NC(=O)NCCCl
Cytochrome P450 2C9 [2]
  AC50: inconclusive

## O=C(Oc1ccc(-c2ccccc2)cc1)N1CCCCC1
[1]
  IC50: 1.11 µM (not active)

## CCOc1ccc(CCNC(=O)CN2CCN(Cc3ccc(F)cc3)C2=O)cc1OCC
[1]
  IC50: > 50 µM (not active)

## Cc1ccc(SCC(=O)c2sc(-c3ccccc3)nc2C)cc1
[1]
  IC50: 6.06 µM (not active)

## COC(=O)c1[nH]c2cc(C)ccc2c1NC(=O)CN1CCc2cc(OC)c(OC)cc2C1
[3]
  EC50: > 150 µM (inactive)
[4]
  EC50: > 38 µM (not active)

## COc1ccc2c(Cc3c4ccccc4cc4ccccc34)cncc2c1O
Cytochrome P450 2C9 [2]
  AC50: inconclusive
Cytochrome P450 2D6
  AC50: 3.16 µM (inconclusive)

## Cc1ccc(N2C(=O)C3C4C=CC(CN=C(S)Nc5cccc(Cl)c5)(O4)C3C2=O)cc1 (centres undefined)
[5]
  IC50: > 66 µM (inactive)
[6]
  IC50: > 66 µM (inactive)

## CCOc1ccc(NC(=O)NNC(=O)c2cc3ccccc3cc2O)cc1
[3]
  EC50: > 150 µM (inactive)

## O=C(Nc1ccccn1)c1ccco1
Cytochrome P450 2C19
  AC50: inconclusive
Cytochrome P450 2C9 [2]
  AC50: inconclusive

## CCCCOc1cccc(C(=O)NN=C(S)NC2CCCCC2)c1
[3]
  EC50: 37.1 µM (active)

## CC1Cc2ccccc2N1C(=O)CCN1C(=O)C2C3C=CC(C3)C2C1=O (centres undefined)
Cytochrome P450 2C19; read-out: AC50
  AC50: 10 µM (inconclusive)
Cytochrome P450 2C9 [2]
  AC50: inconclusive
Cytochrome P450 1A2
  AC50: 10 µM (inconclusive)

## Cn1nc(C(C)(C)C)cc1C(=O)Sc1cccc(Br)c1
[7]
  AC50: 16.4 µM (active)
[5]
  IC50: > 66 µM (inactive)
Protein RecA
  EC50: 37.1 µM (inconclusive)
[6]
  IC50: > 66 µM (inactive)

## O=C1c2ccccc2C(=O)N1CC1=CCS(=O)(=O)C1
[5]
  IC50: > 66 µM (inactive)
[6]
  IC50: > 66 µM (inactive)

## COc1ccc(CNc2ccc3c[nH]nc3c2)c(OC)c1OC
[7]
  AC50: 2.69 µM (active)
Protein RecA
  EC50: 0.797 µM (active)

## Cc1ccc(C(=O)NC(=S)Nc2ccc(N3CCN(C(=O)c4ccco4)CC3)cc2)cc1
[5]
  IC50: > 66 µM (inactive)
[6]
  IC50: > 66 µM (inactive)

## Cn1c(C(=O)NCC2CCCO2)cc2c(=O)n3ccccc3nc21 (centres undefined)
Cytochrome P450 2C19; read-out: AC50
  AC50: 17.8 µM (inconclusive)
Cytochrome P450 2D6
  AC50: 3.55 µM (inconclusive)
Cytochrome P450 2C9 [8]
  AC50: 25.1 µM (inconclusive)

## Cc1cc(SCC(=O)c2cccs2)nc2c(C)cccc12
Cytochrome P450 2C9 [2]
  AC50: inconclusive

## COc1ccc(N2CCN(C(c3ccccc3)c3nnnn3Cc3ccc(F)cc3)CC2)cc1 (centres undefined)
[1]
  IC50: 5 µM (not active)

## CSc1nn2c(C(F)(F)F)cc(C(F)(F)F)nc2c1C(=O)O
[3]
  EC50: > 160 µM (inactive)

## C=COC(=O)CSc1snc(SCC(=O)OC)c1C#N
[7]
  AC50: > 380 µM (inactive)
Protein RecA
  EC50: 40.1 µM (active)

## NN=C(S)Nc1cccc(Cl)c1
[3]
  EC50: > 150 µM (inconclusive)
[4]
  EC50: > 38 µM (not active)

## CCCCNS(=O)(=O)c1ccc(OC)c(Cl)c1Cl
Cytochrome P450 2C9 [2]
  AC50: inconclusive
Cytochrome P450 1A2
  AC50: 4.47 µM (inconclusive)

## O=C1CC/[N+](=C\c2ccc(Cl)c(Cl)c2)[N-]1
[7]
  AC50: 17.8 µM (active)
Protein RecA
  EC50: 8.98 µM (active)

## CC1CCCN(C2=C(Cl)C(=O)N(c3cccc(Cl)c3)C2=O)C1 (centres undefined)
[7]
  AC50: > 380 µM (inactive)
Protein RecA
  EC50: 2.86 µM (active)

## COc1ccc(S(=O)(=O)N(C(=O)C(C)C)c2ccc3oc(=O)sc3c2)cc1
[5]
  IC50: > 66 µM (inactive)
[6]
  IC50: > 66 µM (inactive)

## CC(C)CNCC(=O)N1c2ccccc2Sc2ccccc21.O=C(O)C(=O)O
Cytochrome P450 2C9 [2]
  AC50: inconclusive
Cytochrome P450 2D6
  AC50: 28.2 µM (inconclusive)
Cytochrome P450 1A2
  AC50: 15.8 µM (inconclusive)

## CCc1ccc(CNC(=O)CCC(=O)N2Cc3cccc(OC)c3Oc3ncccc32)cc1
[3]
  EC50: > 160 µM (inactive)
[4]
  EC50: > 38 µM (not active)

## Cc1cccc(NC(S)=NCc2cccs2)c1
[1]
  IC50: > 50 µM (not active)

## Cc1cc(C)c(S(=O)(=O)NNC(=O)C2CCN(Cc3ccccc3)CC2)c(C)c1
Cytochrome P450 2C9 [2]
  AC50: inconclusive
Cytochrome P450 3A4
  AC50: 22.4 µM (inconclusive)

## Oc1ccc(Br)cc1/C=N/c1cccn2cc(-c3ccccc3)nc12
[5]
  IC50: > 66 µM (inactive)
[6]
  IC50: > 66 µM (inactive)

## CC(=O)N1CC[C@@H]2[C@@H](CO)Nc3ccc(C#Cc4ccccc4F)cc3[C@@H]21
[9]
  AC50: 10.7 µM (active)

## C/C=C/c1ccccc1[C@@H]1[C@@H](CO)N(S(=O)(=O)c2cccc(F)c2)[C@H]1C#N
[9]
  AC50: 6.96 µM (active)

## COc1ccc2c3c([nH]c2c1)[C@@H](CO)N(Cc1ccccc1)CC31CCN(C(=O)c2cccnc2)CC1
[9]
  AC50: 4.55 µM (active)

## COc1ccc2c3c([nH]c2c1)[C@H](CO)N(Cc1ccccc1F)CC31CN(C(=O)C2CCC2)C1
[9]
  AC50: 7.75 µM (active)
